Test system: RAW264.7
Experiment: Antiinflammatory activity in mouse RAW264.7 cells assessed as inhibition of LPS-stimulated nitric oxide production treated for 2 hrs before LPS challenge measured after 24 hrs […]
Type: functional, cell-based

| Structure (SMILES) | IC50 [µM] |
| --- | --- |
| COC(=O)c1cc2c([nH]c3ccccc32)c(C(C)=O)n1 | 17.9 |
| COC(=O)/C=C/NC(=O)c1cc2c([nH]c3ccccc32)c(C(C)=O)n1 [DICHOTOMIDE III] | 17.3 |
| C/C=C(/C)C(=O)O[C@@H](C)c1nc(C(=O)N/C=C/C(=O)OC)cc2c1[nH]c1ccccc12 [DICHOTOMIDE X] | 11.3 |
| N=C(N)NN [PIMAGEDINE] | 4.6 |
| CC(=O)c1nc(C(N)=O)cc2c1[nH]c1ccccc12 [STELLARINES A] | 19.3 |
| COC(=O)/C=C\NC(=O)c1cc2c([nH]c3ccccc32)c(C(C)=O)n1 [STELLARINES B] | 18.6 |

Reference: ChEMBL document CHEMBL1649360, “β-carboline alkaloids from Stellaria dichotoma var. lanceolata and their anti-inflammatory activity” (J Nat Prod, 2010)
